From patent US12285408B2, “Methods and compositions for the treatment of snake bite” (priority 2021, dated 2025) come the findings set out here.

Assay [1] has as its system procoagulant and anticoagulant toxins fractionated from D. russelii venom. The experiment in a line: Nanofractionation of D. russelii venom with plasma coagulation assay. It counts as biochemical, Daboia russelii. Particulars: inhibitor 20 μM to 0.0064 μM. As to the method:
FIG. 12. […] The data is plotted separately for ‘very fast coagulation’, ‘medium coagulation’ and ‘anticoagulation’, based on the slopes of the 0-5 min and 0-20 min readings, and the single endpoint reading at 180 min. The tested inhibitor concentrations are presented alongside the chromatograms. […] The data is presented as the maximal clotting velocity at each concentration, and represents means of triplicate independent repeats with SEMs, where each technical repeat represents the mean of n≥2 technical replicates. The venom-only control (top dashed lines) and the negative control (bottom dashed lines) are presented as intervals and represent the average±SEM observed for the venom-only and PBS controls across all datasets and replicates.
Fifty microlitres of venom solution (D. russelii; 1 mg/ml) was injected into a Shimadzu LC-2010 system with nanofractionation in parallel. Separation was performed on a Waters XBridge reversed-phase C18 column (250×4.6 mm column with 3.5 μm pore-size) at 30° C. The total flow rate of the mobile phase solution was 0.5 ml/min with eluent A (98% H2O, 2% acetonitrile [ACN], 0.1% formic acid [FA]) and eluent B (98% ACN, 2% H2O, 0.1% FA). Liquid chromatography gradients consisted of a linear increase of mobile phase B from 0 to 50% in 20 min, followed by a linear increase to 90% B in 4 min, then isocratic at 90% B for 5 min, after which the percentage of mobile phase B was decreased from 90% to 0% in 1 min, followed by 10 min at 0% B to re-equilibrate. The effluent was split in a 1:9 ratio of which the 10% fraction was sent to a Shimadzu SPD-M20A prominence diode array detector and the 90% fraction was directed to a nanofractionation collector which dispensed the fractions into transparent 384-well plates (F-bottom, rounded square well, polystyrene, without lid, clear, non-sterile; Greiner Bio One, Alphen aan den Rijn, The Netherlands) at a resolution of 6 s/well. […]
The final assay concentrations of the inhibitors tested in the assay were 20 μM, 4 μM, 0.8 μM, 0.16 μM, 0.032 μM and 0.0064 μM. […] The plate was then read immediately for absorbance kinetically for 100 min at 595 nm at 25° C. using a Varioskan™ Flash Multimode Reader (Thermo Fisher Scientific, Ermelo, The Netherlands). The obtained results were normalized by dividing the slope measured in each well by the median of all slope values across the plate, and the processed coagulation chromatograms were plotted to visualize very fast coagulation, medium increased coagulation and anticoagulation, as previously described^37.

Assay [2] relates to procoagulant activities of viper venoms (E. ocellatus, E. carinatus, B. asper, D. russelii). The experiment in a line: Plasma clotting assay, neutralization of procoagulant venom activity. It counts as biochemical. Conditions: for IC50: range across all venoms, 100 ng venom, bovine plasma, read-out: IC50, inhibition of procoagulant activity. The source says: FIG. 11. SVMP-inhibitors neutralize the in vitro procoagulant activities of several geographically distinct viper venoms. […] The data presented represents the maximum clotting velocity, calculated as the maximum of the first derivative of each clotting curve, from triplicate independent repeat experiments with SEMs, where each technical repeat represents the mean of n≥2 technical replicates. EOC, E. ocellatus; ECAR, E. carinatus; BAS, Bothrops asper, BAR, Bitis arietans; DRUS, Daboia russelii. (B) Neutralization of procoagulant venom activity by four SVMP-inhibitors across four drug concentrations (150 μM to 150 nM). The data is expressed as the maximum clotting velocity at each dose. The negative (PBS) and positive (venom-only) controls are presented as intervals (bottom dashed and top dashed lines, respectively), with the latter representing the mean maximum clotting velocity in these samples±SEM. The data represent triplicate independent repeats with SEMs, where each technical repeat represents the mean of n≥2 technical replicates. Note the different y-axis scales.
Since SVMPs are key toxins associated with causing coagulopathy, we next investigated whether the same peptidomimetic and metal chelating inhibitors could also neutralize the procoagulant bioactivities of viper venoms. To do so, we used a validated kinetic absorbance-based assay monitoring plasma clotting^35 in the presence or absence of venoms and inhibitors (FIG. 11).
We used a previously developed plasma clotting assay^35 to measure venom-induced coagulation. Briefly, 100 ng of each venom was incubated at 37° C. for 30 min in the presence or absence of inhibitors (150 μM to 150 nM final concentrations). The final reaction consisted of 10 μl venom±inhibitors in PBS, 20 μl 20 mM CaCl2), and 20 μl citrated bovine plasma (VWR). The samples were pipetted in triplicate into 384-well plates, and absorbance monitored at 595 nm for 2 h at 25° C. on an Omega FLUOstar instrument. We calculated the maximum clotting velocity of each of the curves as per clot waveform analysis^67, by calculating the maximum of the first derivative. The means of at least three independent experimental runs for each condition were plotted at each inhibitor concentration with SEMs.

The test system of assay [3] is metalloproteinase activity of C. atrox, C. adamanteus and C. horridus venom. Nature of the assay: In vitro snake venom metalloproteinase assay, North American rattlesnake venoms. It counts as biochemical, Crotalus atrox, Crotalus adamanteus, Crotalus horridus. Particulars: 25 μM drug, 1 μg venom, range across the three rattlesnake venoms. The source says: FIG. 6. […] Error bars represent standard deviation.
The remaining assay protocol with respects to fluorogenic substrate preparation, plate-read settings and data processing was the same as described above.
These species were selected for their clinical importance in the USA, namely: 1) Crotalus atrox (Western diamondback), which is found across the southwest USA and into Mexico and is thought to be the most common cause of snakebite envenoming in USA, 2) Crotalus horridus (Timber rattlesnake), which is found across Eastern and central USA, and is categorised as a Group I medically important snake by the World Health Organization. Furthermore, this species is not included in the immunising mixture of the current FDA-approved CroFab antivenom. 3) Crotalus adamanteus (Eastern diamondback), which is another Group I medically important snake, found in the South-East USA.

Consider `CCc1c(C(=O)C(N)=O)c2c(OCC(=O)O)cccc2n1Cc1ccccc1` [varespladib], for which, in assay [1], the “inhibition of anticoagulant fractions of D. russelii venom” value is listed as “effectively inhibited the anticoagulant activity” and the “inhibition of procoagulant fractions of D. russelii venom” value was “some inhibitory effect against procoagulant venom toxins, but only at very high doses (20 μM)”.

The IC50 is the concentration that gives 50% inhibition. For the compound `CNC(=O)[C@@H](NC(=O)[C@H](CC(C)C)[C@H](O)C(=O)NO)C(C)(C)C` [marimastat], in assay [1], the “inhibition of anticoagulant fractions of D. russelii venom” value was “not neutralized by this inhibitor at any of the tested concentrations” and the “inhibition of procoagulant fractions of D. russelii venom” value is “effectively inhibited in a dose-dependent manner”. Further, the IC50 in assay [2] was 0.15 to 1.92 µM. The “inhibition of metalloproteinase activity” value in assay [3] is 90.9-99.1%.

As to `O=S(=O)(O)CC(S)CS` (stereo not drawn) [DMPS, 2,3-dimercapto-1-propanesulfonic acid], the “neutralization of procoagulant activities” value in assay [2] (E. ocellatus, E. carinatus and B. asper venoms, highest dose 150 μM) is “effective at neutralizing the procoagulant activities”. Moreover, the IC50 in assay [2] is 0.8 to 25.9 µM. Also, the “inhibition of metalloproteinase activity” value in assay [3] is 88.6-97.8%.
